Assay results taken from US8022056B2, “Compositions and methods for the treatment of cancer” (Tautatis, Inc, priority 2006, dated 2011).

Key:
PKC = assay: Kinase inhibition under standard conditions, PKC; format: biochemical
PC-3 xenograft = assay: Mouse xenograft model PC-3; format: in vivo; settings: Prostate, p53/PTEN; oral twice daily dosing
Experimental: (§1) The efficacy of the compound of the formula 1 was confirmed in mouse tumor xenograft models, employing the NMRI(nu/nu) strain of mice. For example, cells from the human tumor cell lines MDA-MB-231, U373, and HT29 were pre-incubated subcutaneously in several nude mice to select for the most robustly growing cell population. After having grown to a sufficient size after 2-3 weeks, a piece of about 2 mm^3 volume of the most suitable tumor was transplanted subcutaneously into the region of the thoracic mammary fat pads, an area ensuring a high degree of vascularization of the grafted tissue. […] During the course of the treatment, the weight of the animals and the size of the transplanted tumor was monitored three times a week. […] These doses are best determined separately for each individual mouse strain employed.
(§2) To establish a solid tumour 3×10^6 tumor cells suspended in 100 μl of serum free medium (RPMI) were inoculated subcutaneously into the region of the thoracic mammary fat pads of 5 Male NMRI(nu/nu) mice of 8-10 weeks of age. […] During the course of the treatment body weight changes and tumor growth were recorded three times a week. Growth curves were plotted together with standard deviations and the significance of differences was determined using an unpaired t-test in FIG. 11. […]

T-47D xenograft = assay: Mouse xenograft model T-47D; format: in vivo; settings: Breast, p53/PI3K; oral twice daily dosing
Experimental: as §1, §2

[1] = Pharmacokinetics in mouse plasma and brain after oral dosing; format: in vivo
Experimental: Standard curves were established for the compound 1 reextracted from serum samples and brain homogenates, using the related compound 2 as internal standard. 200 μl serum samples prepared from mouse or human blood, and homogenates of 0.2 g mouse brain tissue in 0.3 ml saturated NaCl solution, were spiked with a range of concentrations of compound 1 at 10 nM, 30 nM, 100 nM, 300 nM, 1 μM, 3 μM in a mix with 500 nM of compound 2 as internal standard in DMSO (final DMSO not exceeding 2%). Serum and homogenate samples were mixed with 100 μl conc. Ammonia, and 200 μl sat'd NaCl solution was added to the serum samples. […] were reextracted twice with 2 ml ethylacetate each by vigorous vortexing for 1 min. Combined organic extracts were evaporated in a SpeedVac, and residues were taken up in 300 μl of 40% water/60% methanol (0.1% formic acid). Samples were analyzed by reversed phase HPLC on a […] Zorbox 300SB-C8 2.1×150 mm column at 45° C. […]
Mice were dosed at 12.5 mg/kg in a vehicle of 50 mM (−)-lactic acid in 50% PEG400, and sacrificed by cardiac puncture after various time intervals. […] Reextraction was performed, and ratios of analyte 1 and internal standard 2 were determined as described above. The concentrations of compound 1 in the serum and brain samples was calculated from the standard curve.

[2] = target: T1, ABC-B1 (glycoprotein gp170) (Homo sapiens, UniProt P08183); assay: Competition with MDR-driven efflux of calcein-AM in Kb-V1 cells (FACS); format: cell-based
T1 construct: Kb-V1 cells expressing high levels of gp170; endogenous in cells; host or cells: Kb-V1 cells
T1 sequence (P08183 whole entry): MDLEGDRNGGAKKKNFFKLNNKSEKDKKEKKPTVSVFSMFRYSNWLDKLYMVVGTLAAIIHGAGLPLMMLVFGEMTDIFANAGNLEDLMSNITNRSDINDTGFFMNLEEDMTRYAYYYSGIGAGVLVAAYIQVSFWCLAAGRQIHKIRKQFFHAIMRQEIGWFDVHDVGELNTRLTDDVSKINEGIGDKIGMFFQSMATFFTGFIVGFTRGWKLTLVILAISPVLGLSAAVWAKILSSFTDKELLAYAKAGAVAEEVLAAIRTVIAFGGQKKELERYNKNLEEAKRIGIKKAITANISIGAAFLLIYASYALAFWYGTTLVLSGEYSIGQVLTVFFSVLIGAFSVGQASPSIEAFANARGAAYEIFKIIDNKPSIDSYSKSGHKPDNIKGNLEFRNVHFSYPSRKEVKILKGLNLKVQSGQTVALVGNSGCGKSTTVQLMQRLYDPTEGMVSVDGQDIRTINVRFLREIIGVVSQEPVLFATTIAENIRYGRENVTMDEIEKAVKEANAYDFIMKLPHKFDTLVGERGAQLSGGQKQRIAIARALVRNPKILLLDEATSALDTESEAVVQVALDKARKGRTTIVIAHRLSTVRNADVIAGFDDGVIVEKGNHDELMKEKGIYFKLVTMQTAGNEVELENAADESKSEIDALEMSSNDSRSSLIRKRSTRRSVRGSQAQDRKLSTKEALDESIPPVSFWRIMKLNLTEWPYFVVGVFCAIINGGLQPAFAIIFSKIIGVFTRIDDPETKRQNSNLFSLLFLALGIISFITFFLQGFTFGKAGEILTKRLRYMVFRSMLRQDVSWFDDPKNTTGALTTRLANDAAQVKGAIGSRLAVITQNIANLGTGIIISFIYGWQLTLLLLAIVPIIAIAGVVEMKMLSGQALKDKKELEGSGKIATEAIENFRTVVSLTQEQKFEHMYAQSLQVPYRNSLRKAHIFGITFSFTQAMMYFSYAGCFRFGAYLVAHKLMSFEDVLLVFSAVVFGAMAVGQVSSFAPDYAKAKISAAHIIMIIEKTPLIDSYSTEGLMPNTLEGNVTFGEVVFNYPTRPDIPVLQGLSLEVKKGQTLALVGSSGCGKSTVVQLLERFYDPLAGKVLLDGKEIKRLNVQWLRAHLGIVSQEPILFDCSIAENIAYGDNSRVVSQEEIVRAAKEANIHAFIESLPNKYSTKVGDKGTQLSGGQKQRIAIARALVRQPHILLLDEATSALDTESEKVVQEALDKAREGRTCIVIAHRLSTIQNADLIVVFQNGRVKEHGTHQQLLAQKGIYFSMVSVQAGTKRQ
Excerpt: FIG. 6 compares the recognition of compound 1 and of the compound 6 by two frequently involved multi-drug resistance proteins ABC-B1 (glycoprotein gp170) (A), and ABC-G2 (breast cancer resistance protein BCRP) (B). Measurements were based on competition with the MDR-driven efflux of calcein-AM in Kb-V1 cells expressing high levels of gp170, or competition with the efflux of mitoxandrone in MCF-7 cells by the respective compounds within their effective concentration range. Uptake of fluorescent reporter compounds by competition with 1 or 6 was assessed by FACS as described in Mueller et al., Cancer Chemother. Pharmacol. 59, 157-164 (2007).

Compound: CNC(=O)[C@@]1(N)C[C@H]2O[C@]1(C)n1c3ccccc3c3c4c(c5c6ccccc6n2c5c31)C(=O)NC4 [Compound 1]
- IC50 (PKC): 1280 nM
- Mean % Inhibition (PC-3 xenograft): 68%
- N tumors with no/neg. growth (PC-3 xenograft): 2 of 11
- Mean % Inhibition (T-47D xenograft): 81%
- N tumors with no/neg. growth (T-47D xenograft): 4 of 10
- maximal free plasma concentration sustained over prolonged periods ([1]; in vivo, practical forms of oral dosing): about 200 nM
- penetration of the CNS ([1]; mouse plasma and brain, oral dosing): good penetration of the CNS
- separation of anti-proliferative potency range from uptake concentration for efflux transporter, versus compound 6 [2]: more clearly separated
